Source: patent US4906638A (priority 1987, dated 1990)
Entries after “also recorded” stand apart in the source; their conditions may differ. Read-outs that look alike come from different tables or passages of the source.

What was measured:
[1] = test system: [^3 H]dextromethorphan receptor; settings: cited from earlier work; for effect on [^3 H]dextromethorphan binding / binding to the dextromethorphan site (in words): central nervous system site; for IC50: read-out: IC50, inhibition of [^3 H]dextromethorphan binding, in vitro
[2] = test system: N-methyl-D-aspartate-induced seizures; experiment: N-methyl-D-aspartate (NMDA) induced convulsions in mice; format: in vivo, mice (male CF-1); settings: for % Protected: 30 min before NMDA 250 mg/kg; for protection against N-methyl-D-asparate-induced seizures (in words): i.p.
Method: When mice (male CF-1; 25-30 g) are administered NMDA (250 mg/kg; IP) animals typically respond with seizure activity consisting of an initial staring, followed in rapid order by hindlimb scratching, increased locomotor activity, rearing behavior, clonic seizures, tonic extension and death.
All drugs were dissolved in saline (0.9%; w/v) and delivered by intraperitoneal injection in a volume of 1.0% (w/v) of body weight.

[3] = test system: maximal electroshock induced seizures; experiment: maximal electroshock (MES) induced seizures in mice (Example II); format: in vivo, mice (male CF-1); settings: for % Protected: 30 min before testing
Method: All drugs were dissolved in saline (0.9%; w/v) and delivered intraperitoneally in a volume equal to 1 percent of body weight. Animals failing to show tonic hindlimb extension were scored as protected from MES-induced convulsions.

[4] = observed signs of toxicity in mice after ethosuximide; format: in vivo; settings: 500 mg/kg i.p.
[5] = test system: maximal electroshock seizures (tonic hindlimb extension); experiment: maximal electroshock (MES) procedure for mice, transauricular (Example I); format: in vivo; settings: for mice protected: 500 mg/kg i.p.
Method: For combination studies two separate injections were administered. […] The absence of tonic hindlimb extension was taken as evidence for seizure protection.

[6] = test system: calcium-induced spasms in smooth muscle; settings: cited from earlier work
[7] = test system: [^3 H]TCP-labeled-NMDA-linked receptor; settings: cited from earlier work
[8] = test system: transauricular maximal electroshock seizure (MES); settings: cited from earlier work
[9] = test system: CNS side effects (rotorod ataxia); experiment: rotorod-ataxia toxicity test (CNS side effects); settings: maximal therapeutic dose of dextromethorphan
Text: (§1) Mice that were unable to maintain equilibrium for one continuous minute, given 3 opportunities were scored as ataxic.

[10] = following 20 to 60 mg dextromethorphan p.o. in humans; cited from earlier work
[11] = rats, dogs and humans; cited from earlier work
[12] = rotorod-ataxia toxicity test (CNS side effects); settings: mouse, in vivo
Text: as §1

For OCCN1CCN(CCCN2c3ccccc3C=Cc3ccccc32)CC1 [opipramol], the “effect on [^3 H]dextromethorphan binding / binding to the dextromethorphan site (in words)” value [1] is listed as “bind to the same central nervous system site”.

In the case of CN1C(=O)CN=C(c2ccccc2)c2cc(Cl)ccc21 [diazepam], the “effect on [^3 H]dextromethorphan binding / binding to the dextromethorphan site (in words)” value [1] is given as “do not inhibit or enhance binding”.

In the case of CN1CCN(CCCN2c3ccccc3Sc3ccc(C(F)(F)F)cc32)CC1 [trifluorperazine], the “effect on [^3 H]dextromethorphan binding / binding to the dextromethorphan site (in words)” value [1] is listed as “bind to the same central nervous system site”.

In the case of CC(CN(C)C)CN1c2ccccc2Sc2ccccc21 (centres unmarked) [trimeprazine], the “effect on [^3 H]dextromethorphan binding / binding to the dextromethorphan site (in words)” value [1] is given as “bind to the same central nervous system site”.

In the case of CCN(CC)CCOCCOC(=O)C1(c2ccccc2)CCCC1 [carbetapentane], the “effect on [^3 H]dextromethorphan binding / binding to the dextromethorphan site (in words)” value [1] is listed as “bind to the same central nervous system site” and the IC50 [1] is listed as 0.001 to 0.075 µM.

For CC(CN1c2ccccc2Sc2ccccc21)N(C)C (centres unmarked) [promethazine], the “effect on [^3 H]dextromethorphan binding / binding to the dextromethorphan site (in words)” value [1] is given as “bind to the same central nervous system site”.

For CN(C)CCOCCOC(=O)N1c2ccccc2Sc2ccccc21 [dimethoxanate], the “effect on [^3 H]dextromethorphan binding / binding to the dextromethorphan site (in words)” value [1] is given as “bind to the same central nervous system site” and the IC50 [1] is given as 0.001 to 0.075 µM.

In the case of CCC1(c2ccccc2)C(=O)NC(=O)NC1=O [phenobarbital], the “effect on [^3 H]dextromethorphan binding / binding to the dextromethorphan site (in words)” value [1] is listed as “do not inhibit or enhance binding”.

In the case of O=C(O)C1CN(CCCP(=O)(O)O)CCN1 (centres unmarked) [CPP, 3-(2-carboxypiperazin-4-yl)propyl-1-phosphono acid], the “% Protected” value ([2]; CPP 1.5 mg/kg i.p. alone) is reported as 12.5%, the “% Protected” value ([2]; CPP 2.0 mg/kg i.p. alone) is reported as 37.5% and the “protection against N-methyl-D-asparate-induced seizures (in words)” value [2] is reported as “afforded protection”. The “% Protected” value ([3]; CPP 5 mg/kg i.p. alone) was 25% and the “% Protected” value ([3]; CPP 10 mg/kg i.p. alone) was 60%.

With CCC1(C)CC(=O)NC1=O (centres unmarked) [Ethosuximide] the “signs of sedation, ataxia and gross toxicity” value [4] was “all mice injected showed signs of sedation, ataxia and gross toxicity”, the mice protected ([5]; at one half hour) was “one in five” and the mice protected ([5]; one hour after injection) was “none”.

In the case of OCCN1CCN(CC/C=C2/c3ccccc3Sc3ccc(C(F)(F)F)cc32)CC1 [flupenthinol], the “effect on [^3 H]dextromethorphan binding / binding to the dextromethorphan site (in words)” value [1] is listed as “bind to the same central nervous system site”.

In the case of CN1[C@@H]2CC[C@H]1C[C@@H](OC(c1ccccc1)c1ccccc1)C2 [benztropine], the “effect on [^3 H]dextromethorphan binding / binding to the dextromethorphan site (in words)” value [1] is listed as “bind to the same central nervous system site”.

In the case of COc1ccc2c(c1)[C@]13CCCC[C@@H]1[C@H](C2)N(C)CC3 [dextromethorphan], the “block of calcium-induced spasms in smooth muscle (in words)” value [6] is listed as “block calcium-induced spasms in smooth muscle”, the “% Protected” value ([2]; DM 10 mg/kg i.p. alone) is listed as 33% and the “protection against N-methyl-D-asparate-induced seizures (in words)” value [2] is listed as “afforded protection”. The “binding at phencyclidine-labeled/N-methyl-D-asparate linked receptors (in words)” value [7] was “bind at phencyclidine-labeled/N-methyl-D-asparate linked receptors”, the Kd ([1]; read-out: Kd, high affinity binding of [^3 H]dextromethorphan, homogenates of guinea pig, rat and mouse lower brainstem) was less than 0.02 µM and the “protection against transauricular maximal electroshock seizure (in words)” value ([8]; 30 mg/kg, by itself) was “provide protection against transauricular maximal electroshock seizure (MES)”. The “protection time against MES compared with dilantin (in words)” value ([8]; standard testing conditions) was “somewhat longer protection time against MES than that exhibited by dilantin”, the “increment in carbamazepine's CNS side effects (in words)” value [9] was “little increment in carbamazepine's CNS side effects” and the “% Protected” value ([3]; DM 6.6 mg/kg i.p. alone) was 0%. The “% Protected” value ([3]; DM 10 mg/kg i.p. alone) was 16.6%, the “% Protected” value ([3]; DM 27 mg/kg i.p. alone) was 50% and the “% Protected” value ([3]; DM 30 mg/kg i.p. alone) was 66.6%. The “effect of dextromethorphan on anticonvulsant activity of CPP (in words)” value ([3]; low vs higher doses of dextromethorphan combined with CPP) was “readily apparent only when low doses of dextromethorphan were administered in combination with anticonvulsant doses of CPP; also recorded: higher doses of dextromethorphan were either ineffective to increase the anticonvulsant activity of CPP or, partially attenuated the activity”, the absolute plasma levels [10] was “five” and the “% Mice Protected” value ([5]; 0 mg/kg CBM + 10 mg/kg DM (DM alone)) was 0%. The “% Mice Protected” value ([5]; 0 mg/kg CBM + 20 mg/kg DM (DM alone)) was 8%, the “protection when administered alone (in words)” value ([5]; 10 and 20 mg/kg, with 0 CBM) was “little or no protection” and the “% Protected” value ([5]; DM 5 mg/kg i.p., one-half hour before MES) was 0%. The “% Protected” value ([5]; DM 10 mg/kg i.p., one-half hour before MES) was 0%, the “% Protected” value ([5]; DM 20 mg/kg i.p., one-half hour before MES) was 8% and the “% Protected” value ([5]; DM 25 mg/kg i.p., one-half hour before MES) was 25%. The “% Protected” value ([5]; DM 30 mg/kg i.p., one-half hour before MES) was 37.5%, the “% Protected” value ([5]; DM 35 mg/kg i.p., one-half hour before MES) was 75% and the “% Protected” value ([5]; DM 45 mg/kg i.p., one-half hour before MES) was 87.5%. For the same compound, the “% Protected” value ([5]; DM 55 mg/kg i.p., one-half hour before MES) was 100%, the ED50 ([5]; Mus musculus, ip, 0.5 h, DM alone, i.p., one-half hour before MES, range in parentheses, read-out: ED50) was 29.2 mg/kg and the “anticonvulsant activity (in words)” value ([5]; alone, i.p., one-half hour before MES) was “dose dependent anticonvulsant activity”.

In the case of c1ccc(C2(c3ccccc3)OC[C@H]([C@@H]3CCCCN3)O2)cc1 [dexoxadrol], the “effect on [^3 H]dextromethorphan binding / binding to the dextromethorphan site (in words)” value [1] is given as “do not inhibit or enhance binding”.

In the case of CN1CCN(CCCN2c3ccccc3Sc3ccc(Cl)cc32)CC1 [prochlorperazine], the “effect on [^3 H]dextromethorphan binding / binding to the dextromethorphan site (in words)” value [1] is listed as “bind to the same central nervous system site”.

For C(=C\c1ccccc1)/CN1CCN(C(c2ccccc2)c2ccccc2)CC1 [cinnarizine], the “effect on [^3 H]dextromethorphan binding / binding to the dextromethorphan site (in words)” value [1] is listed as “bind to the same central nervous system site”.

For O=C(OCCOCCN1CCCCC1)N1c2ccccc2Sc2cccnc21 [pipazethate], the “effect on [^3 H]dextromethorphan binding / binding to the dextromethorphan site (in words)” value [1] is listed as “bind to the same central nervous system site”.

For CN(C)CCCN1c2ccccc2Sc2ccc(Cl)cc21 [chlorpromazine], the “effect on [^3 H]dextromethorphan binding / binding to the dextromethorphan site (in words)” value [1] is listed as “bind to the same central nervous system site”.

In the case of CN1CC[C@@]23CCCC[C@@H]2[C@@H]1Cc1ccc(O)cc13 [dextrorphan], the “ratio of dextrorphan to dextromethorphan in plasma and urine” value [11] is given as “exceeds 100 to 1”.

For OCCN1CCN(CCCN2c3ccccc3Sc3ccc(Cl)cc32)CC1 [perphenazine], the “effect on [^3 H]dextromethorphan binding / binding to the dextromethorphan site (in words)” value [1] is listed as “bind to the same central nervous system site”.

In the case of Nc1ccccc1 [phenylamine], the “effect on [^3 H]dextromethorphan binding / binding to the dextromethorphan site (in words)” value [1] is given as “bind to the same central nervous system site”.

In the case of COc1ccc2c(c1OC)C(=O)O[C@@H]2[C@H]1c2c(cc3c(c2OC)OCO3)CCN1C [noscapine], the “effect on [^3 H]dextromethorphan binding / binding to the dextromethorphan site (in words)” value [1] is given as “markedly increased” and the “effect on [^3 H]dextromethorphan binding / binding to the dextromethorphan site (in words)” value ([1]; listed as roscapine) is given as “bind to the same central nervous system site”.

For CCN(CC)CCOC(=O)C1(c2ccccc2)CCCC1 [caramiphen], the “effect on [^3 H]dextromethorphan binding / binding to the dextromethorphan site (in words)” value [1] is listed as “bind to the same central nervous system site” and the IC50 [1] is listed as 0.001 to 0.075 µM.

For c1ccc(C2(N3CCCCC3)CCCCC2)cc1 [phencyclidine], the “effect on [^3 H]dextromethorphan binding / binding to the dextromethorphan site (in words)” value [1] is given as “do not inhibit or enhance binding”.

In the case of OCCN1CCN(CCCN2c3ccccc3Sc3ccc(C(F)(F)F)cc32)CC1 [fluphenazine], the “effect on [^3 H]dextromethorphan binding / binding to the dextromethorphan site (in words)” value [1] is listed as “bind to the same central nervous system site”.

In the case of CNC1(c2ccccc2Cl)CCCCC1=O (centres unmarked) [ketamine], the “effect on [^3 H]dextromethorphan binding / binding to the dextromethorphan site (in words)” value [1] is listed as “do not inhibit or enhance binding”.

In the case of NC(=O)N1c2ccccc2C=Cc2ccccc21 [carbamazepine, 5-H-dibenzepin-(5)-carboxamide], the “effect on [^3 H]dextromethorphan binding / binding to the dextromethorphan site (in words)” value [1] is given as “did not inhibit or enhance; also recorded: do not inhibit or enhance binding”, the TD50 at […] [12] is given as 44.8 mg/kg and the “% Mice Protected” value ([5]; CBM 1 mg/kg alone, 15 min before MES) is given as 0%. The “% Mice Protected” value ([5]; CBM 3 mg/kg alone, 15 min before MES) was 0%, the “% Mice Protected” value ([5]; CBM 6 mg/kg alone, 15 min before MES) was 25% and the “% Mice Protected” value ([5]; CBM 8 mg/kg alone, 15 min before MES) was 50%. For the same compound, the “% Mice Protected” value ([5]; CBM 9 mg/kg alone, 15 min before MES) was 75%, the “% Mice Protected” value ([5]; CBM 12 mg/kg alone, 15 min before MES) was 100% and the “ED50” value ([5]; CBM alone, 15 min) was 7.2 mg/kg.
